The molecules below were run on C2C12 muscle cells (assay: Analysis of glucose absorption (2-deoxyglucose) in differentiated C2C12 muscle cells). Details: test materials 10 μM, times relative to control group.
Assay type: cell-based
Protocol: C2C12 muscle cells were cultured in DMEM (Dulbecco's modified Eagle's medium) containing 10% bovine calf serum. When the cell density increased to about 85 to 90%, the culture medium was replaced with 1% bovine calf serum and cell differentiation was induced for 6 days. Completely differentiated cells were cultured for 3 hours with Krebs-Ringer buffer (KRB) containing 5 mM glucose. The test materials were added at a concentration of 10 μM. 30 minutes later, 0.2 μCi 2-deoxyglucose was added. KRB was removed 20 minutes later and the cells were washed for 3 times with cold PBS. The cells were lysed with 0.5N NaOH and counted using a radioactive counter.

SMILES	Glucose absorption
COc1cccc(CNc2nc(-c3ccncc3)nc3ccccc23)c1 [Compound 248, (3-Methoxybenzyl)-(2-pyridino-4-ylquinazolino-4-yl)-amine]	1.4
Fc1cccc(CNc2nc(Cc3ccccc3)nc3ccccc23)c1 [Compound 219, (2-Benzylquinazolino-4-yl)-(3-fluorobenzyl)-amine]	2.3
Clc1ccc(-c2nc(NCc3ccccc3)c3ccccc3n2)cc1 [Compound 259, Benzyl-[2-(4-chlorophenyl)-quinazolino-4-yl]-amine]	1.4
C=CCNc1nc(SCC)nc2ccccc12 [Compound 42, Allyl-(2-ethylsulfanylquinazolino-4-yl)-amine]	1.1
Clc1ccc(CNc2nc(-c3ccccc3)nc3ccccc23)cc1Cl [Compound 89, (3,4-Dichlorobenzyl)-(2-phenylquinazolino-4-yl)-amine]	1.4
c1cncc(-c2nc(NCc3cccc4ccccc34)c3ccccc3n2)c1 [Compound 241, Naphthaleno-1-ylmethyl-(2-pyridino-3-ylquinazolino-4-yl)-amine]	1.2
CC(C)c1ccc(Nc2nc(-c3ccccc3)nc3ccccc23)cc1 [Compound 72, (4-Isopropyl-phenyl)-(2-phenylquinazolino-4-yl)-amine]	1.1
COc1cccc(CCNc2nc(-c3ccccc3)nc3ccccc23)c1 [Compound 120, [2-(3-Methoxyphenyl)-ethyl]-(2-phenylquinazolino-4-yl)-amine]	1.4
c1ccc(-c2nc(NC3CCCCC3)c3ccccc3n2)cc1 [Compound 51, Cyclohexyl-(2-phenylquinazolino-4-yl)-amine]	1.0
c1ccc(-c2nc(NC3CCCC3)c3ccccc3n2)cc1 [Compound 95, Cyclopentyl-(2-phenylquinazolino-4-yl)-amine]	1.2
Fc1ccc(Nc2nc(-c3ccccc3)nc3ccccc23)cc1 [Compound 76, (4-Fluorophenyl)-(2-phenylquinazolino-4-yl)-amine]	1.0
FC(F)(F)c1cccc(CCNc2nc(-c3ccccc3)nc3ccccc23)c1 [Compound 64, (2-Phenylquinazolino-4-yl)-[2-(3-trifluoromethyl-phenyl)-ethyl]-amine]	1.2
c1ccc(-c2nc(NCCC(c3ccccc3)c3ccccc3)c3ccccc3n2)cc1 [Compound 136, (3,3-Diphenylpropyl)-(2-phenylquinazolino-4-yl)-amine]	1.3
COc1ccc(OC)c(CCNc2nc(-c3ccccc3)nc3ccccc23)c1 [Compound 122, [2-(2,5-Dimethoxyphenyl)-ethyl]-(2-phenylquinazolino-4-yl)-amine]	1.3
C=CCNc1nc(-c2ccccc2)nc2ccccc12 [Compound 97, Allyl-(2-phenylquinazolino-4-yl)-amine]	1.0
c1ccc(-c2nc(NCC3CCCCC3)c3ccccc3n2)cc1 [Compound 132, Cyclohexylmethyl-(2-phenylquinazolino-4-yl)-amine]	1.3
O=[N+]([O-])c1ccc(CONc2nc(-c3ccccc3)nc3ccccc23)cc1 [Compound 161, O-(4-Nitrobenzyl)-N-(2-phenylquinazolino-4-yl)-hydroxylamine]	1.1
CCCCc1ccc(Nc2nc(-c3ccccc3)nc3ccccc23)cc1 [Compound 79, (4-Butyl-phenyl)-(2-phenylquinazolino-4-yl)-amine]	1.1
CCSc1nc(NC(CC)COC)c2ccccc2n1 (centres unmarked) [Compound 40, (2-Ethylsulfanylquinazolino-4-yl)-(1-methoxymethylpropyl)-amine]	1.2
OC(CNc1nc(-c2ccccc2)nc2ccccc12)c1ccccc1 (centres unmarked) [Compound 146, 1-Phenyl-2-(2-phenylquinazolino-4-ylamino)-ethanol]	2.3
FC(F)(F)c1cccc(CNc2nc(-c3cccnc3)nc3ccccc23)c1 [Compound 238, (2-Pyridino-3-ylquinazolino-4-yl)-(3-trifluoromethylbenzyl)-amine]	1.0
FC(F)(F)c1cccc(CNc2nc(Cc3ccccc3)nc3ccccc23)c1 [Compound 214, (2-Benzylquinazolino-4-yl)-(3-trifluoromethylbenzyl)-amine]	2.0
c1coc(-c2nc(NCc3ccc4c(c3)OCO4)c3ccccc3n2)c1 [Compound 341, Benzo[1,3]dioxol-5-ylmethyl-(2-furano-2-ylquinazolino-4-yl)-amine]	0.8
COc1cc(CNc2nc(-c3ccccc3)nc3ccccc23)cc(OC)c1 [Compound 92, (3,5-Dimethoxybenzyl)-(2-phenylquinazolino-4-yl)-amine]	1.4
c1ccc(CCNc2nc(Cc3ccccc3)nc3ccccc23)cc1 [Compound 215, (2-Benzylquinazolino-4-yl)-phenethylamine]	2.2

SMILES	Glucose absorption
COc1ccc(OC)c(CNc2nc(Cc3ccccc3)nc3ccccc23)c1 [Compound 334, (2-Benzylquinazolino-4-yl)-(2,5-dimethoxybenzyl)-amine]	1.1
CCc1ccc(Nc2nc(-c3ccccc3)nc3ccccc23)cc1 [Compound 75, (4-Ethyl-phenyl)-(2-phenylquinazolino-4-yl)-amine]	1.3
OCCOCCNc1nc(C2CCCCC2)nc2ccccc12 [Compound 209, 2-[2-(2-Cyclohexylquinazolino-4-ylamino)-ethoxy]-ethanol]	1.1
COc1cc(CNc2nc(-c3ccccc3)nc3ccccc23)cc(OC)c1OC [Compound 129, (2-Phenylquinazolino-4-yl)-(3,4,5-trimethoxybenzyl)-amine]	1.3
CCSc1nc(NCC(C)C)c2ccccc2n1 [Compound 21, (2-Ethylsulfanylquinazolino-4-yl)-isobutylamine]	1.2
c1ccc2c(CNc3nc(C4CCCCC4)nc4ccccc34)cccc2c1 [Compound 205, (2-Cyclohexylquinazolino-4-yl)-naphthaleno-1-ylmethylamine]	1.3
Clc1ccc(-c2nc(NCCc3ccccc3)c3ccccc3n2)cc1 [Compound 263, [2-(4-Chlorophenyl)-quinazolino-4-yl]-phenethylamine]	1.1
COc1cccc(CNc2nc(-c3cccnc3)nc3ccccc23)c1 [Compound 236, (3-Methoxybenzyl)-(2-pyridino-3-ylquinazolino-4-yl)-amine]	1.2
c1ccc(Cc2nc(NCc3cccc4ccccc34)c3ccccc3n2)cc1 [Compound 217, (2-Benzylquinazolino-4-yl)-naphthaleno-1-ylmethylamine]	1.2
CC(C)c1nc(NCCOCCO)c2ccccc2n1 [Compound 185, 2-[2-(2-Isopropylquinazolino-4-ylamino)-ethoxy]-ethanol]	1.4
Fc1cccc(CNc2nc(-c3cccnc3)nc3ccccc23)c1 [Compound 243, (3-Fluorobenzyl)-(2-pyridino-3-ylquinazolino-4-yl)-amine]	1.4
COc1ccc(CNc2nc(Cc3ccccc3)nc3ccccc23)cc1 [Compound 213, (2-Benzylquinazolino-4-yl)-(4-methoxybenzyl)-amine]	1.4
CC(C)CNc1nc(-c2ccccc2)nc2ccccc12 [Compound 55, Isobutyl-(2-phenylquinazolino-4-yl)-amine]	1.2
COc1cc(CNc2nc(Cc3ccccc3)nc3ccccc23)cc(OC)c1OC [Compound 332, (2-Benzylquinazolino-4-yl)-(3,4,5-trimethoxybenzyl)-amine]	1.1
c1ccc(CNc2nc(Cc3ccccc3)nc3ccccc23)cc1 [Compound 211, Benzyl-(2-benzylquinazolino-4-yl)-amine]	1.3
Fc1cccc(CNc2nc(C3CCCCC3)nc3ccccc23)c1 [Compound 207, (2-Cyclohexylquinazolino-4-yl)-(3-fluorobenzyl)-amine]	2.0
OCCOCCNc1nc(-c2ccc(Cl)cc2)nc2ccccc12 [Compound 269, 2-{2-[2-(4-Chlorophenyl)-quinazolino-4-ylamino]-ethoxy}-ethanol]	1.2
c1ccc2c(NCc3ccc4c(c3)OCO4)nc(C3CCCCC3)nc2c1 [Compound 206, Benzo[1,3]dioxol-5-ylmethyl-(2-cyclohexylquinazolino-4-yl)-amine]	1.4
COc1ccc(CNc2nc(-c3cccnc3)nc3ccccc23)cc1 [Compound 237, (4-Methoxybenzyl)-(2-pyridino-3-ylquinazolino-4-yl)-amine]	0.9
CC(C)(C)c1nc(NCCO)c2ccccc2n1 [Compound 198, 2-(2-tert-Butylquinazolino-4-ylamino)-ethanol]	1.4
COc1cc(OC)c(CNc2nc(-c3ccccc3)nc3ccccc23)c(OC)c1 [Compound 337, (2-Phenylquinazolino-4-yl)-(2,4,6-trimethoxybenzyl)-amine]	1.3
CCCNc1nc(SCC)nc2ccccc12 [Compound 31, (2-Ethylsulfanylquinazolino-4-yl)-propylamine]	1.1
COc1ccc(CNc2nc(-c3ccc(Cl)cc3)nc3ccccc23)cc1 [Compound 261, [2-(4-Chlorophenyl)-quinazolino-4-yl]-(4-methoxybenzyl)-amine]	1.1
c1ccc(Nc2nc(-c3ccccc3)nc3ccccc23)cc1 [Compound 69, Phenyl-(2-phenylquinazolino-4-yl)-amine]	1.0
OCCOCCNc1nc(Cc2ccccc2)nc2ccccc12 [Compound 221, 2-[2-(2-Benzylquinazolino-4-ylamino)-ethoxy]-ethanol]	1.5

From patent US20080207614A1, “QUINAZOLINE DERIVATIVES FOR THE TREATMENT AND PREVENTION OF DIABETES AND OBESITY” (SK CHEMICALS CO., LTD., priority 2004, published 2008)
